We go through 29 molecules from ChEMBL document CHEMBL4196070, “Development of Piperazinediones as dual inhibitor for treatment of Alzheimer's disease” (Eur J Med Chem, 2018).

Some results are limits rather than exact numbers.

The target of data set [1] is T1, Acetylcholinesterase (Electrophorus electricus, UniProt O42275). Description: Inhibition of electric eel AChE using acetylthiocholine iodide as substrate preincubated for 30 mins followed by substrate addition and measured for 20 mins at 1 min interval by Ellman's method. Background: DTNB colorimetry detects thiols as they appear.
T1 sequence (O42275 whole entry): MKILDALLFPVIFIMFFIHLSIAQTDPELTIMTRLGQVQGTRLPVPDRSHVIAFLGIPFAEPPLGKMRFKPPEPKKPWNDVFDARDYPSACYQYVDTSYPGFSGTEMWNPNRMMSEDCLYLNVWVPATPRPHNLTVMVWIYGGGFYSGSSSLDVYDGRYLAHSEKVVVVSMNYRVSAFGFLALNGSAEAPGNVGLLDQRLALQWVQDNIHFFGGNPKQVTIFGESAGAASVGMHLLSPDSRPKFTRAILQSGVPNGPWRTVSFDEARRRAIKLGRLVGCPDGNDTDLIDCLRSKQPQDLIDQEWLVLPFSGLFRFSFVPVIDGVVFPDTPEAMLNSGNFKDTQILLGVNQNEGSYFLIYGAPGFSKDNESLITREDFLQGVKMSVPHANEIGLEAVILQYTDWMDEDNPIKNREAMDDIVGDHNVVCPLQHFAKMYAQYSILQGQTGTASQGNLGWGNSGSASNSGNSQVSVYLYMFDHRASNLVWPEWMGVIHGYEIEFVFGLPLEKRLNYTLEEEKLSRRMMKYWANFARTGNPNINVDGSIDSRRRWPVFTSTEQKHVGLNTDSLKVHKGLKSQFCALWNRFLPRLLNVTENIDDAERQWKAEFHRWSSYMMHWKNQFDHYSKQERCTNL
A further data set has as its target Cholinesterase (Equus caballus, UniProt P81908). Description: Inhibition of equine serum BuChE using butyrylthiocholine iodide as substrate preincubated for 30 mins followed by substrate addition and measured for 20 mins at 1 min interval by Ellman's method.
The target of data set [2] is T2, 72 kDa type IV collagenase (Homo sapiens, UniProt P08253). As to the kind of experiment: Inhibition of human MMP2 using Mca-Pro-Leu-Gly-Leu-Dpa-Ala-Arg-NH as substrate preincubated for 60 mins followed by substrate addition by fluorescence analysis.
T2 sequence (P08253 whole entry): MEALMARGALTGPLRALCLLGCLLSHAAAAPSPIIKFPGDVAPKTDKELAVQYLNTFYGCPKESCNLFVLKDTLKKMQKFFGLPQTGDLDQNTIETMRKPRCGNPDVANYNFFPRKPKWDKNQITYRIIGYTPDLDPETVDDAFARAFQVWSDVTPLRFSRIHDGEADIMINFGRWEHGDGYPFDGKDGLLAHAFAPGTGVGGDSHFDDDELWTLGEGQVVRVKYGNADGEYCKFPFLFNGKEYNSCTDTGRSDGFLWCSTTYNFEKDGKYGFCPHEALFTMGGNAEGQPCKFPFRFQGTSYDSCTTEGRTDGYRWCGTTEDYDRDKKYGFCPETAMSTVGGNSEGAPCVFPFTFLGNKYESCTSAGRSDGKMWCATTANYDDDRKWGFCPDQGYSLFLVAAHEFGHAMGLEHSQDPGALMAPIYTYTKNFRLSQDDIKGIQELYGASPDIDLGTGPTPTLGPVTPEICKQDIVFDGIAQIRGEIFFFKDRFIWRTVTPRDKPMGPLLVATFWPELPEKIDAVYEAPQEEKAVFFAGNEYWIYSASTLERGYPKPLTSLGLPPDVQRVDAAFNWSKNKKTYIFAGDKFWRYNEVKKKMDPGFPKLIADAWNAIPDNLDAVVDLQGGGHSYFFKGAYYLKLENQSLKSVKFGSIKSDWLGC
Data set [3] is described as follows: Permeability of the compound at 25 ug/ml after 18 hrs by PAMPA-BBB assay. It counts as ADME. The settings on record: read-out: permeability.
The test system of a further data set is Mus musculus. Description: Effect on locomotive behavior in Swiss albino mouse at 5 to 20 mg/kg, ip administered once daily for 7 days prior to 4 hrs of training and measured after 5 mins by Y-maze test. The settings on record: in vivo. The format is ADME, organism-based.
Data set [4] is described as follows: Toxicity in Wistar rat measured for 72 hrs. The settings on record: in vivo. It counts as organism-based.
The next data set concerns Rattus norvegicus. Description: Toxicity in Wistar rat assessed as mortality at 300 mg/kg measured for 72 hrs. It counts as organism-based. The settings on record: in vivo.
Data set [5] concerns the target T1, Acetylcholinesterase. As to the kind of experiment: Non-competitive inhibition of electric eel AChE using acetylthiocholine iodide as substrate preincubated for 30 mins followed by substrate addition by Dixon plot analysis.
Data set [6] addresses T2, 72 kDa type IV collagenase. As to the kind of experiment: Competitive inhibition of human MMP2 using Mca-Pro-Leu-Gly-Leu-Dpa-Ala-Arg-NH as substrate preincubated for 60 mins followed by substrate addition by secondary plot analysis.
Data set [7] in a line: Neuroprotective activity against tetracycline removal-induced cytotoxicity in human MC65 cells assessed as cell viability at 70 uM after 12 hrs by MTT assay relative to control. It counts as functional. The settings on record: MC65, 12 h, read-out: Activity.

Sequence of Cholinesterase (P81908 whole entry): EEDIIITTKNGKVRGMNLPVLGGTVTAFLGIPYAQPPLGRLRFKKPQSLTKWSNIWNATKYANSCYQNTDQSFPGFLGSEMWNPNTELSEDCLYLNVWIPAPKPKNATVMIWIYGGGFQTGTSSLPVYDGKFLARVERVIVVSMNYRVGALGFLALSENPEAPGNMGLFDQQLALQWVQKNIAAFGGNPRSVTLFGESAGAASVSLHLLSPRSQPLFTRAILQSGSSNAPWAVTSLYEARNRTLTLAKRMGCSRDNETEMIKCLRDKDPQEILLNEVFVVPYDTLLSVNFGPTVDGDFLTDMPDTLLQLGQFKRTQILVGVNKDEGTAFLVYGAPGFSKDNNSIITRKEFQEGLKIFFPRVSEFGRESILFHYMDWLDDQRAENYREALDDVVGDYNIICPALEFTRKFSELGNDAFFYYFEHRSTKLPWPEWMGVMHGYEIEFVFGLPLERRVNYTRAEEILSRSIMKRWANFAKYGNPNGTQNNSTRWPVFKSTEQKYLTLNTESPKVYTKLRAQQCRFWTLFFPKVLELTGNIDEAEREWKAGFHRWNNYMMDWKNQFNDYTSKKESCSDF

A word on the IC50: it is the concentration that gives 50% inhibition. The low end stands for greater potency in that assay, the high end for weaker potency in that assay. Take `O=C1CN(S(=O)(=O)c2ccc(F)cc2)C(=O)CN1S(=O)(=O)c1ccc(F)cc1`: the figures for the IC50 (at Acetylcholinesterase [1]; on Cholinesterase; in [2]) were 78.3 nM, 186 nM and 55.1 nM, respectively. Moreover, the Papp at 18 h, 25 ug/ml in [3] was 10.3 ×10⁻⁶ cm/s.

`CCCS(=O)(=O)N1CC(=O)N(S(=O)(=O)CCC)CC1=O`: the concentration for half-maximal inhibition (IC50) at Acetylcholinesterase [1] was > 200 nM; against Cholinesterase it was > 200 nM; in data set [2], > 1000 nM. In data set [3], the Papp at 18 h, 25 ug/ml was determined as 0.89 ×10⁻⁶ cm/s.

As to `O=C1CN(S(=O)(=O)c2ccc(Cl)cc2)C(=O)CN1S(=O)(=O)c1ccc(Cl)cc1`, the results for the IC50 (at Acetylcholinesterase [1]; against Cholinesterase; in [2]) were 61.6 nM, 180 nM and 49.7 nM, respectively. The Papp at 18 h, 25 ug/ml in data set [3] worked out at 6.43 ×10⁻⁶ cm/s.

`O=C1C(Cc2ccccc2)N(S(=O)(=O)c2cccc(O)c2)C(=O)C(Cc2ccccc2)N1S(=O)(=O)c1cccc(O)c1` (centres undefined): the results for the IC50 (against Acetylcholinesterase [1]; against Cholinesterase; in data set [2]) were 69.8 nM, > 200 nM and 83 nM, respectively. Moreover, the Papp at 18 h, 25 ug/ml in [3] was 6.36 ×10⁻⁶ cm/s.

As to `CCCCS(=O)(=O)N1CC(=O)N(S(=O)(=O)CCCC)CC1=O`, the IC50 is > 200 nM against Acetylcholinesterase [1], > 200 nM on Cholinesterase and > 1000 nM in data set [2]. Moreover, the Papp at 18 h, 25 ug/ml in [3] was 1.06 ×10⁻⁶ cm/s.

By LD50 is commonly meant the dose expected to kill half of the subjects tested. Low values mean a more toxic substance, high ones a less toxic substance. Regarding `O=C1C(Cc2ccccc2)N(S(=O)(=O)c2ccc(Cl)cc2)C(=O)C(Cc2ccccc2)N1S(=O)(=O)c1ccc(Cl)cc1` (centres undefined), the IC50 against Acetylcholinesterase [1] was 32.5 nM; on Cholinesterase it was 158 nM; in data set [2] it was 36.8 nM. Also, in data set [3], the Papp at 18 h, 25 ug/ml was 12.3 ×10⁻⁶ cm/s. The Activity entry in the data set on Mus musculus is on record as “Non-Toxic”; with Rattus norvegicus, “Toxic”. In [4], this molecule returned an LD50 at 72 h of 200 mg/kg.

For the molecule `Cc1ccc(S(=O)(=O)N2C(=O)C(c3ccccc3)N(S(=O)(=O)c3ccc(C)cc3)C(=O)C2c2ccccc2)cc1` (centres undefined), the IC50 against Acetylcholinesterase [1] was 76.4 nM; on Cholinesterase, > 200 nM; in data set [2], 62.9 nM. In addition, the Papp at 18 h, 25 ug/ml in data set [3] is 11.3 ×10⁻⁶ cm/s.

`COc1ccc(S(=O)(=O)N2CC(=O)N(S(=O)(=O)c3ccc(OC)cc3)CC2=O)cc1`: the figures for the IC50 (against Acetylcholinesterase [1]; on Cholinesterase; in data set [2]) were 91.5 nM, > 200 nM and 75.3 nM, respectively. Also, the Papp at 18 h, 25 ug/ml in data set [3] is 6.46 ×10⁻⁶ cm/s.

Consider `O=C1C(c2ccccc2)N(S(=O)(=O)c2ccc(O)cc2)C(=O)C(c2ccccc2)N1S(=O)(=O)c1ccc(O)cc1` (centres undefined), for which the IC50 on Acetylcholinesterase [1] is 84.2 nM; against Cholinesterase, > 200 nM; in data set [2], 57.2 nM. In addition, the Papp at 18 h, 25 ug/ml in [3] was determined as 6.84 ×10⁻⁶ cm/s.

As for `O=C1C(Cc2ccccc2)N(S(=O)(=O)c2ccc(O)cc2)C(=O)C(Cc2ccccc2)N1S(=O)(=O)c1ccc(O)cc1` (centres undefined), the IC50 was found to be 59.5 nM against Acetylcholinesterase [1], 199 nM against Cholinesterase and 72 nM in data set [2]. The Papp at 18 h, 25 ug/ml in data set [3] is 5.68 ×10⁻⁶ cm/s.

The term Ki denotes the equilibrium dissociation constant of an inhibitor or competing ligand from its target. Low values mean a stronger hold on the target, high ones a looser hold on the target. For `O=C1C(c2ccccc2)N(S(=O)(=O)c2ccc(Cl)cc2)C(=O)C(c2ccccc2)N1S(=O)(=O)c1ccc(Cl)cc1` (centres undefined), the IC50 at Acetylcholinesterase [1] worked out at 28.6 nM; against Cholinesterase it was 161 nM; in [2] it was 19.6 nM. Also, the Ki at Acetylcholinesterase [5] turned out to be 7 nM; in data set [6], 20 nM. In addition, in data set [3], the Papp at 18 h, 25 ug/ml stood at 7.38 ×10⁻⁶ cm/s. The viability at 70 µM in [7] turned out to be 99.4%. The Activity entry in the data set on Mus musculus is given as “Non-Toxic”; in the data set with Rattus norvegicus it was “Toxic”. The molecule also displayed an LD50 at 72 h in [4] of 200 mg/kg.

`O=C1C(Cc2ccccc2)N(S(=O)(=O)c2ccc(Br)cc2)C(=O)C(Cc2ccccc2)N1S(=O)(=O)c1ccc(Br)cc1` (centres undefined): the IC50 against Acetylcholinesterase [1] was 57 nM; against Cholinesterase, 181 nM; in [2], 38.7 nM. For the same molecule, the Papp at 18 h, 25 ug/ml in data set [3] stood at 7.29 ×10⁻⁶ cm/s.

With `O=C1CN(S(=O)(=O)c2cccc(Cl)c2)C(=O)CN1S(=O)(=O)c1cccc(Cl)c1`, the IC50 came out at 66.7 nM on Acetylcholinesterase [1], 197 nM on Cholinesterase and 58 nM in [2]. Besides, the Papp at 18 h, 25 ug/ml in data set [3] came to 8.37 ×10⁻⁶ cm/s.

In the case of `O=C1C(Cc2ccccc2)N(S(=O)(=O)c2ccc([N+](=O)[O-])cc2)C(=O)C(Cc2ccccc2)N1S(=O)(=O)c1ccc([N+](=O)[O-])cc1` (centres undefined), the IC50 is 57.4 nM against Acetylcholinesterase [1], 163 nM on Cholinesterase and 53.8 nM in [2]. For the same molecule, the Papp at 18 h, 25 ug/ml in data set [3] turned out to be 4.49 ×10⁻⁶ cm/s.

Take `O=C1C(c2ccccc2)N(S(=O)(=O)c2ccc(Br)cc2)C(=O)C(c2ccccc2)N1S(=O)(=O)c1ccc(Br)cc1` (centres undefined): the IC50 stood at 50.6 nM at Acetylcholinesterase [1], 183 nM at Cholinesterase and 32.7 nM in data set [2]. In addition, in data set [3], the Papp at 18 h, 25 ug/ml was found to be 8.31 ×10⁻⁶ cm/s.

With `O=C1C(c2ccccc2)N(S(=O)(=O)c2ccc([N+](=O)[O-])cc2)C(=O)C(c2ccccc2)N1S(=O)(=O)c1ccc([N+](=O)[O-])cc1` (centres undefined), the IC50 against Acetylcholinesterase [1] came out at 60.8 nM; on Cholinesterase it was 176 nM; in data set [2] it was 33.5 nM. Also, the Papp at 18 h, 25 ug/ml in data set [3] is 4.63 ×10⁻⁶ cm/s.

Consider `O=C1CN(S(=O)(=O)c2ccccc2)C(=O)CN1S(=O)(=O)c1ccccc1`, for which the results for the IC50 (on Acetylcholinesterase [1]; at Cholinesterase; in data set [2]) were 98.5 nM, > 200 nM and 82.2 nM, respectively.

On to `Nc1ccc(S(=O)(=O)N2CC(=O)N(S(=O)(=O)c3ccc(N)cc3)CC2=O)cc1`, for which the IC50 on Acetylcholinesterase [1] is 86.3 nM; on Cholinesterase, > 200 nM; in data set [2], 53.1 nM. Also, the Papp at 18 h, 25 ug/ml in [3] was found to be 6.1 ×10⁻⁶ cm/s.

As for `O=C1C(c2ccccc2)N(S(=O)(=O)c2cccc(Br)c2)C(=O)C(c2ccccc2)N1S(=O)(=O)c1cccc(Br)c1` (centres undefined), the IC50 was 76.6 nM against Acetylcholinesterase [1], 193 nM against Cholinesterase and 54.7 nM in data set [2]. Moreover, the Papp at 18 h, 25 ug/ml in data set [3] was 9.45 ×10⁻⁶ cm/s.

Regarding `Nc1ccc(S(=O)(=O)N2C(=O)C(c3ccccc3)N(S(=O)(=O)c3ccc(N)cc3)C(=O)C2c2ccccc2)cc1` (centres undefined), the IC50 against Acetylcholinesterase [1] is 91.3 nM; against Cholinesterase it was > 200 nM; in data set [2], 50.6 nM. Besides, in data set [3], the Papp at 18 h, 25 ug/ml amounted to 5.53 ×10⁻⁶ cm/s.

As for `Cc1ccc(S(=O)(=O)N2CC(=O)N(S(=O)(=O)c3ccc(C)cc3)CC2=O)cc1`, the IC50 on Acetylcholinesterase [1] is 118 nM; against Cholinesterase it was > 200 nM; in [2] it was 86.7 nM. The Papp at 18 h, 25 ug/ml in data set [3] is 10.4 ×10⁻⁶ cm/s.

Take `O=C1C(Cc2ccccc2)N(S(=O)(=O)c2cccc(Br)c2)C(=O)C(Cc2ccccc2)N1S(=O)(=O)c1cccc(Br)c1` (centres undefined): the values for the IC50 (against Acetylcholinesterase [1]; against Cholinesterase; in data set [2]) were 76.7 nM, 191 nM and 58.1 nM, respectively. Moreover, the Papp at 18 h, 25 ug/ml in [3] is 8.06 ×10⁻⁶ cm/s.

In the case of `O=C1CN(S(=O)(=O)c2ccc(Br)cc2)C(=O)CN1S(=O)(=O)c1ccc(Br)cc1`, the IC50 against Acetylcholinesterase [1] stood at 81.8 nM; against Cholinesterase, 191 nM; in data set [2] it was 54.7 nM. Also, the Papp at 18 h, 25 ug/ml in [3] was 8.87 ×10⁻⁶ cm/s.

As for `Cc1cccc(S(=O)(=O)N2C(=O)C(c3ccccc3)N(S(=O)(=O)c3cccc(C)c3)C(=O)C2c2ccccc2)c1` (centres undefined), the figures for the IC50 (against Acetylcholinesterase [1]; on Cholinesterase; in data set [2]) were 83.9 nM, > 200 nM and 73.8 nM, respectively. Further, the Papp at 18 h, 25 ug/ml in [3] is 11.8 ×10⁻⁶ cm/s.

Consider `Cc1nnc2n1-c1ccc(Cl)cc1C(c1ccccc1)=NC2` [ALPRAZOLAM], for which the Papp at 18 h, 25 ug/ml in [3] was 4.6 to 5.4 ×10⁻⁶ cm/s.

Regarding `CN(C)CCCN1c2ccccc2Sc2ccc(Cl)cc21` [CHLORPROMAZINE], the Papp at 18 h, 25 ug/ml in data set [3] lay within 5.9 to 6.5 ×10⁻⁶ cm/s.

As to `NCCc1ccc(O)c(O)c1` [DOPAMINE], in data set [3], the Papp at 18 h, 25 ug/ml lay in the range of 0.17 to 0.2 ×10⁻⁶ cm/s.

On to `CCn1cc(C(=O)O)c(=O)c2cc(F)c(N3CCNC(C)C3)c(F)c21` (centres undefined) [LOMEFLOXACIN], for which the Papp at 18 h, 25 ug/ml in data set [3] was in the range of 0.31 to 1.1 ×10⁻⁶ cm/s.

As for `CC(=O)[C@H]1CC[C@H]2[C@@H]3CCC4=CC(=O)CC[C@]4(C)[C@H]3CC[C@]12C` [PROGESTERONE], the Papp at 18 h, 25 ug/ml in data set [3] was 9.3 to 15.8 ×10⁻⁶ cm/s.
